This note sets out measurements from US12398118B2, “Rho-associated protein kinase inhibitor, pharmaceutical composition comprising same, and use thereof” (BEIJING TIDE PHARMACEUTICAL CO., LTD., priority 2018, dated 2025).

A value given as a limit tells only on which side of the number the result lay.

In one assay the target is ROCK2 (Homo sapiens, UniProt O75116). As to the kind of experiment: ROCK2 kinase IC50, HTRF KinEASE-STK S2 kit. It is filed as biochemical. Conditions: 2 hours at room temperature. As for the experimental part:
(§1) The kinase IC50 was determined by a commercialized CISBIO kinase detection kit, HTRF KinEASE-STK S2 kit (62ST2PEC). ROCK2 (01-119) employed in the reaction was purchased from Carna Biosciences.
(§2) Before the assay, the following working solutions as needed were formulated with corresponding reagents according to the instruction of the kinase detection kit: 1×kinase buffer, 5×STK-S2 substrate working solution (1.5 μM) and 5×ATP working solution (1.5 μM), 5×ROCK2 kinase working solution, 4×Streptavidin-XL665 working solution, and 4×STK-Ab-Cryptate 2 detection solution. Then the assay was performed according to the following procedure.
(§3) A solution of a compound at a concentration of 10000 nM was prepared with the 1×kinase buffer containing 2.5% DMSO. Gradient dilution of the solution of the compound was performed with the kinase buffer containing DMSO, so as to obtain solutions of a test compound at 9 different concentrations. In addition to wells of test compounds, a positive well (containing all the reagents except the compound) and a negative well (containing all the reagents except the test compound and kinase) were set. Except for the control wells (positive and negative wells), a solution of a test compound (4 μL) was added to each of the reaction wells, and a solution of 2.5% DMSO was added to the control wells. Then the substrate (2 μM, i.e., 2 μL 5×STK-S2 substrate working solution) was added to each of the reaction wells. The 5×ROCK2 kinase working solution (2 μL, containing 1.4 ng ROCK2 kinase) was added to each of the reaction wells except for the negative well, the volume of which was made up with the 1×kinase buffer (2 μL). The 5×ATP working solution (2 μL) was added to each of the reaction wells, and the mixtures were incubated at room temperature for 2 hours. After the kinase reaction was complete, the 4×Streptavidin-XL665 working solution was added to each of the reaction wells, the solutions were mixed, followed by immediate addition of the 4×STK-Ab-Cryptate 2 detection solution (5 μL), and the mixtures were incubated at room temperature for 1 hour. The fluorescence signal was read on ENVISION (Perkinelmer) (excitation wavelength: 320 inn, and emission wavelength: 665 nm and 615 nm). The inhibitory rate in each well was calculated based on the fluorescence intensity value: ER (Emission Ratio)_(fluorescence intensity at 665 nm/fluorescence intensity at 615 nm); inhibitory rate=(ERpositive−ERtest compound)/(ERpositive−ERnegative)*100%. Curves were plotted and fitted to obtain the median inhibitory concentration (IC50) of each teat compound with the PRISM 5.0 software. According to a biological test method similar to the above, the IC50 values of the compounds on ROCK1 were also tested.

Another assay deals with ROCK1 (Homo sapiens (Human), UniProt Q13464). As to the kind of experiment: ROCK1 kinase IC50, biological test method similar to ROCK2 assay. It is filed as biochemical. As for the experimental part: as §1, §2, §3
ROCK1, sequence (Q13464 whole entry, species assumed): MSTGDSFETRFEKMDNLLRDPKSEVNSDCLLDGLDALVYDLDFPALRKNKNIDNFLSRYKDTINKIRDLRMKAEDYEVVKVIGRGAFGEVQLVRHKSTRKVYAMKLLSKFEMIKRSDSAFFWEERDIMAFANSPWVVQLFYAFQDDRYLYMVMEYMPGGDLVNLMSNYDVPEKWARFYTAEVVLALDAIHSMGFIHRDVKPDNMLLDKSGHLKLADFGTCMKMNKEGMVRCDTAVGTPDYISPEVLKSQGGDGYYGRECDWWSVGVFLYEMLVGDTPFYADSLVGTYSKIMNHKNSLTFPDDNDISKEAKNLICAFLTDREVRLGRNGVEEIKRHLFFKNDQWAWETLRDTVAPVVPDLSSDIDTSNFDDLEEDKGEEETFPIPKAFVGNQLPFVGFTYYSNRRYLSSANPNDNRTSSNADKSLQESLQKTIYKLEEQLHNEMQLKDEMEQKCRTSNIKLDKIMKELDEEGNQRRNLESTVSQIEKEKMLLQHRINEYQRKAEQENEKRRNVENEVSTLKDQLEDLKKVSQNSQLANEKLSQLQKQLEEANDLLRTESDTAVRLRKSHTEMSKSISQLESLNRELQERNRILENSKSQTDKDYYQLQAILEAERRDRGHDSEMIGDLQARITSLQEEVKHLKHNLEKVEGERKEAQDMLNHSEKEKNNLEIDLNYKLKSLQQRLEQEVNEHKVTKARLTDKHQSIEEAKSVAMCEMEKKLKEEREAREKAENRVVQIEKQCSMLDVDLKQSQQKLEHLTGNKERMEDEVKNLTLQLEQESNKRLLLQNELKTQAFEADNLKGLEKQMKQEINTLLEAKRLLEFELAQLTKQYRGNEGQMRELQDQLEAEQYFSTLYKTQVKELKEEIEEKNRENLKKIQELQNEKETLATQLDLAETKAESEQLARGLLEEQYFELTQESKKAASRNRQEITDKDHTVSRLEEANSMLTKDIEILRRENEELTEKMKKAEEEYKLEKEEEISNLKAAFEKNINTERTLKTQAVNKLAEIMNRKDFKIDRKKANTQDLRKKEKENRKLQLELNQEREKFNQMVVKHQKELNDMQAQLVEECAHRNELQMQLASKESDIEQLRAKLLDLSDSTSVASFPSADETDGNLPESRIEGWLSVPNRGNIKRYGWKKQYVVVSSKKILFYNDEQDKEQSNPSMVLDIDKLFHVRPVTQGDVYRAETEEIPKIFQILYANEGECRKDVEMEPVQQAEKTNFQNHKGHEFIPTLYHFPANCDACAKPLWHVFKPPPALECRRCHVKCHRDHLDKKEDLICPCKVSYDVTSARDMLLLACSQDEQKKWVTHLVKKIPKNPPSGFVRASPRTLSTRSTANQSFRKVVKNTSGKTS

ROCK2, sequence (O75116 whole entry, looked up): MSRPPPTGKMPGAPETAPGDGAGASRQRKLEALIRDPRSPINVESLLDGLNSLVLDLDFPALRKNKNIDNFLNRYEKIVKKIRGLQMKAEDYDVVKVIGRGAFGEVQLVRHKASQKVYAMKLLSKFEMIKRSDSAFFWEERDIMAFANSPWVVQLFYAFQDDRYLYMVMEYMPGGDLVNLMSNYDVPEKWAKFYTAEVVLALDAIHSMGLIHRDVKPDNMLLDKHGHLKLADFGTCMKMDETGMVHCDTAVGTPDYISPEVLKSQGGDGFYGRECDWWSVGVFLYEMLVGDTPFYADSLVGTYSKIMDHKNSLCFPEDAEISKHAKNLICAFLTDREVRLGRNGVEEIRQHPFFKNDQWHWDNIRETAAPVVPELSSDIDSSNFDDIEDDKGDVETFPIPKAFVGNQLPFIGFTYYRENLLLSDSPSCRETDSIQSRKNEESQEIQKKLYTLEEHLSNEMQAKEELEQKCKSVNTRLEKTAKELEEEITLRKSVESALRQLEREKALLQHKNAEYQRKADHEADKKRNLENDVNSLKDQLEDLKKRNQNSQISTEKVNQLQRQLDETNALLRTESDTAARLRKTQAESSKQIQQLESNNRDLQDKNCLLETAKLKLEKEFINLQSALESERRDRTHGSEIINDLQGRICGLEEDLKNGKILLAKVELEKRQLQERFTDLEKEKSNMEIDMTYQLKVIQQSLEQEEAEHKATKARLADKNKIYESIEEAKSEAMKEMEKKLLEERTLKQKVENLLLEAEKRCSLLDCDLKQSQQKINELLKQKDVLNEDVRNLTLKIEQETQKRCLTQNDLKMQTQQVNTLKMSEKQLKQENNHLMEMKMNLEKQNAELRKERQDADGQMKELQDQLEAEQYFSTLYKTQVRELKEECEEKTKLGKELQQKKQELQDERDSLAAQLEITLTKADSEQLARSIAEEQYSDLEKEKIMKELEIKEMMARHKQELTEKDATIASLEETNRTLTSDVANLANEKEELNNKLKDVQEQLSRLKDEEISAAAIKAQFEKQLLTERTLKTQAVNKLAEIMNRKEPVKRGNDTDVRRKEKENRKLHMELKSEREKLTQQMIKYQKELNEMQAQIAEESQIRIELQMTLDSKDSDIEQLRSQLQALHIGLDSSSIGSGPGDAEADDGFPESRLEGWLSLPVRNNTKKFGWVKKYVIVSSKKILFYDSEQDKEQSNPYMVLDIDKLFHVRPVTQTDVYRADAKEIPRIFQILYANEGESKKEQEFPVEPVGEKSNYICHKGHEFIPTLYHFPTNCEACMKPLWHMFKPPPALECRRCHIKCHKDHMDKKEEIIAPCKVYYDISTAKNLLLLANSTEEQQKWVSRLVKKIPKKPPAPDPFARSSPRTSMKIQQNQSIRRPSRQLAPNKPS

With `O=C(c1ccc2c(c1)CN(c1nccc(Nc3ccc4c(=O)[nH]ccc4c3)n1)C2)N1CC(F)(F)C1` [C1, 6-((2-(5-(3,3-difluoroazetidine-1-carbonyl)isoindolin-2-yl)pyrimidin-4-yl)amino)isoquinolin-1(2H)-one], the IC50 (commonly the concentration at which inhibition is half-maximal) is 129 nM on ROCK2 and greater than 10000 nM on ROCK1.

Consider `O=C1NCc2cc(Nc3nc(-c4ccc5c(c4)CN(C(=O)C4CC(F)(F)C4)C5)ncc3F)ccc21` [C3, 5-((2-(2-(3,3-difluoroo-cyclobutane-1-carbonyl)isoindolin-5-yl)-5-fluoro-pyrimidin-4-yl)amino) isoindolin-1-one], for which the IC50 was 287 nM against ROCK2 and greater than 10000 nM on ROCK1.

As to `O=C(C1CC(F)(F)C1)N1Cc2ccc(-c3ncc(F)c(Nc4ccc5c(=O)[nH]cc(Cl)c5c4)n3)cc2C1` [C5, 4-chloro-6-((2-(2-(3,3-difluoroo-cyclobutane-1-carbonyl)isoindolin-5-yl)-5-fluoro-pyrimidin-4-yl)amino) isoquinolin-1(2H)-one], the figures for the IC50 against ROCK2 and on ROCK1 were 13 nM and greater than 10000 nM, respectively.

For the compound `O=C(C1CC(F)(F)C1)N1Cc2ccc(-c3ncc(F)c(Nc4ccc5c(=O)[nH]cnc5c4)n3)cc2C1` [C6, 7-((2-(2-(3,3-difluoroo-cyclobutane-1-carbonyl)isoindolin-5-yl)-5-fluoro-pyrimidin-4-yl)amino) quinazolin-4(3H)-one], the IC50 is 76 nM against ROCK2 and greater than 10000 nM against ROCK1.

As to `O=C(C1CC(F)(F)C1)N1Cc2ccc(-c3ncc(F)c(Nc4ccc5c(=O)[nH]ccc5c4)n3)cc2C1` [C8, 6-((2-(2-(3,3-difluoroo-cyclobutane-l-carbonyl)isoindolin-5-yl)-5-fluoro-pyrimidin-4-yl)amino) isoquinolin-1(2H)-one], the IC50 was 16 nM against ROCK2 and greater than 10000 nM against ROCK1.

Turning to `O=C(c1cc2ccc(-c3ncc(F)c(Nc4ccc5c(=O)[nH]ccc5c4)n3)cc2[nH]1)N1CC(F)(F)C1` [C9, 6-((2-(2-(3,3-difluoroazetidine-1-carbonyl)-1H-indol-6-yl)-5-fluoropyrimidin-4-yl)amino)isoquinolin-1(2H)-one], the IC50 was 4 nM on ROCK2 and greater than 10000 nM against ROCK1.

In the case of `O=C(OC1CC(F)(F)C1)N1Cc2ccc(-c3ncc(F)c(Nc4ccc5c(=O)[nH]ccc5c4)n3)cc2C1` [C10, 3,3-difluorocyclobutyl 5-(5-fluoro-4-((1-oxo-1,2-dihydroisoquinolin-6-yl)amino)pyrimidin-2-yl)isoindoline-2-carboxylate], the results for the IC50 against ROCK2 and against ROCK1 were 11 nM and greater than 10000 nM, respectively.

Take `CC(C)(C)OC(=O)N1Cc2ccc(-c3ncc(F)c(Nc4ccc5c(=O)[nH]ccc5c4)n3)cc2C1` [C11, tert-butyl 5-(5-fluoro-4-((1-oxo-1,2-dihydro-isoquinolin-6-yl)amino)pyrimiclin-2-yl) isoindoline-2-carboxylate]: the IC50 is 34 nM on ROCK2 and greater than 10000 nM at ROCK1.

Consider `O=C(C1CC(F)(F)C1)N1Cc2ccc(-c3ncc(F)c(Nc4ccc5c(=O)[nH]ncc5c4)n3)cc2C1` [C12, 6-((2-(2-(3,3-difluoroo-cyclobutane-1-carbonyl)isoindolin-5-yl)-5-fluoro-pyrimidin-4-yl)amino) phthalazin-1(2H)-one], for which the IC50 against ROCK2 was 17 nM; against ROCK1, greater than 10000 nM.

Take `O=C(C1CCC(F)(F)CC1)N1Cc2ccc(-c3ncc(F)c(Nc4ccc5c(=O)[nH]ccc5c4)n3)cc2C1` [C13, 6-((2-(2-(4,4-difluorocyclohexane-1-carbonyl)isoindolin-5-yl)-5-fluoropyrimidin-4-yl)amino)isoquinolin-1(2H)-one]: the IC50 against ROCK2 was 38 nM; against ROCK1 it was greater than 10000 nM.

For `O=C1NCCc2cc(Nc3nc(-c4ccc5c(c4)CN(C(=O)OC4CC(F)(F)C4)C5)ncc3F)ccc21` [C14, 3,3-difluoro-cyclobutyl 5-(5-fluoro-4-((1-oxo-1,2,3,4-tetrahydro-isoquinolin-6-yl)amino)pyrimidin-2-yl) isoindoline-2-carboxylate], the IC50 on ROCK2 was 28 nM; on ROCK1 it was greater than 10000 nM.

Regarding `O=C(C1CC(F)(F)C1)N1CCc2cc(-c3ncc(F)c(Nc4ccc5c(=O)[nH]ccc5c4)n3)ccc21` [C15, 6-((2-(1-(3,3-difluoroo-cyclobutane-1-carbonyl)indolin-5-yl)-5-fluoro-pyrimidin-4-yl)amino) isoquinolin-1-(2H)-one], the IC50 on ROCK2 is 79 nM; at ROCK1, greater than 10000 nM.

As to `O=C(OC1CC(F)(F)C1)N1CCc2cc(-c3ncc(F)c(Nc4ccc5c(=O)[nH]ccc5c4)n3)ccc21` [C16], the IC50 against ROCK2 is 19 nM; at ROCK1 it was greater than 10000 nM.

In the case of `CC(C)(C)OC(=O)N1CCc2cc(-c3ncc(F)c(Nc4ccc5c(=O)[nH]ccc5c4)n3)ccc21` [C17], the IC50 is 421 nM on ROCK2 and greater than 10000 nM at ROCK1.

In the case of `CC(OC(=O)N1Cc2ccc(-c3ncc(F)c(Nc4ccc5c(=O)[nH]ccc5c4)n3)cc2C1)C(F)(F)F` (stereo not shown) [C18, 1,1,1-trifluoro-propan-2-yl 5-(5-fluoro-4-((1-oxo-1,2-dihydro-isoquinolin-6-yl)amino)pyrimidin-2-yl) isoindoline-2-carboxylate], the IC50 against ROCK2 was 31 nM; on ROCK1, greater than 10000 nM.

In the case of `O=C(OC1CCOC1)N1Cc2ccc(-c3ncc(F)c(Nc4ccc5c(=O)[nH]ccc5c4)n3)cc2C1` (stereo not shown) [C19, tetra-hydrofuran-3-yl 5-(5-fluoro-4-((1-oxo-1,2-dihydro-isoquinolin-6-yl)amino)pyrimidin-2-yl) isoindoline-2-carboxylate], the results for the IC50 on ROCK2 and against ROCK1 were 25 nM and greater than 10000 nM, respectively.

Consider `COCn1c(C(=O)N2CC(F)(F)C2)cc2ccc(-c3ncc(F)c(Nc4ccc5c(=O)[nH]ccc5c4)n3)cc21` [C20, 6-((2-(2-(3,3-difluoro-azetidine-1-carbonyl)-1-(methoxy-methyl)-1H-indol-6-yl)-5-fluoro-pyrimidin-4-yl)amino) isoquinolin-1(2H)-one], for which the figures for the IC50 on ROCK2 and at ROCK1 were 238 nM and greater than 10000 nM, respectively.

Take `COCn1c(C(=O)N2CC(F)(F)C2)cc2ccc(-c3nccc(Nc4ccc5c(=O)[nH]ccc5c4)n3)cc21` [C21, 6-((2-(2-(3,3-difluoro-azetidine-1-carbonyl)-1-(methoxy-methyl)-1H-indol-6-yl)pyrimidin-4-yl)amino) isoquinolin-1(2H)-one]: the values for the IC50 at ROCK2 and at ROCK1 were 108 nM and greater than 10000 nM, respectively.

In the case of `COCn1c(C(=O)N2CC(F)(F)C2)cc2ccc(-c3ncnc(Nc4ccc5c(=O)[nH]ccc5c4)n3)cc21` [C22, 6-((4(2-(3,3-difluoro-azetidine-1-carbonyl)-1-(methoxy-methyl)-1H-indol-6-yl)-1,3,5-triazin-2-yl)amino) isoquinolin-1(2H)-one], the values for the IC50 at ROCK2 and on ROCK1 were 130 nM and greater than 10000 nM, respectively.

As for `O=C(OC1CC(F)(F)C1)N1CCc2cc(-c3ncc(F)c(Nc4ccc5c(=O)[nH]ccc5c4)n3)ccc2C1` [C23, 3,3-difluoro-cyclobutyl 6-(5-fluoro-4-((1-oxo-1,2-dihydro-isoquinolin-6-yl)amino)pyrimidin-2-yl)-3,4-dihydro-isoquinolin-2(1H)-carboxylate], the values for the IC50 against ROCK2 and on ROCK1 were 173 nM and greater than 10000 nM, respectively.

On to `CC(C)(C)OC(=O)N1CCc2cc(-c3ncc(F)c(Nc4ccc5c(=O)[nH]ccc5c4)n3)ccc2C1` [C24, tert-butyl 6-(5-fluoro-4-((1-oxo-1,2-dihydro-isoquinolin-6-yl)amino)pyrimidin-2-yl)-3,4-dihydro-isoquinolin-2(1H)-carboxylate], for which the IC50 against ROCK2 was 222 nM; at ROCK1, greater than 10000 nM.

On to `O=C(OC1CC(F)(F)C1)N1CCc2cc(-c3nccc(Nc4ccc5c(=O)[nH]ccc5c4)n3)ccc2C1` [C25, 3,3-difluoro-cyclobutyl 6-(4-((1-oxo-1,2-dihydro-isoquinolin-6-yl)amino)pyrimidin-2-yl)-3,4-dihydro-isoquinolin-2(1H)-carboxylate], for which the IC50 was 45 nM against ROCK2 and greater than 10000 nM at ROCK1.

Turning to `O=C(OC1CCC1)N1CCc2cc(-c3ncc(F)c(Nc4ccc5c(=O)[nH]ccc5c4)n3)ccc2C1` [C26, cyclobutyl 6-(5-fluoro-4-((1-oxo-1,2-dihydro-isoquinolin-6-yl)amino)pyrimidin-2-yl)-3,4-dihydro-isoquinolin-2(1H)-carboxylate], the IC50 against ROCK2 was 356 nM; against ROCK1, greater than 10000 nM.
